# In PMC9780888, “4-Isobutylmethcathinone—A Novel Synthetic Cathinone with High In Vitro Cytotoxicity and Strong Receptor Binding Preference of Enantiomers” (Pharmaceuticals, 2022):
# How the values were obtained:
# [1] = tested on: CaCo-2 cells; experiment: Fluorescence microscopy of cell morphology, CaCo-2; format: cell-based, human; conditions: CaCo-2, 24-h treatment, 100, 300 and 500 µM tested; cells smaller, roundish, in clusters
# Excerpt: In addition to the evaluation of IBMcat cytotoxicity in various cell lines, its impact on cell morphology was also examined in CaCo-2 and MRC-5 cells after 24-h treatment. F-actin and cell nuclei were visualized in these cells treated with 100, 300, and 500-µM concentrations of IBMcat and its enantiomers. IBMcat (Figure 7) induced a considerable change in CaCo-2 cell morphology already from 300-µM concentration, the cells were smaller, bore roundish shapes, and grew in clusters when compared to control untreated cells. This could be ascribed to the substantial toxicity of IBMcat manifested already after 24 h at this concentration. No difference was observed between the individual enantiomers.
# A total of 1 × 10^5 CaCo-2 and MRC-5 cells were seeded into 35-mm glass-bottom dishes for live-cell imaging ((#1.5, MatTek, USA; Ibidi dishes, Germany). After 16 h, the cells were gently washed with phosphate-buffered saline (PBS; pH 7.4), and then, cultivation media containing 100–500 µM IBMCat was added. Untreated cells and cells treated with the vehicle served as controls. After 24 h of the cell incubation with IBMCat, the cells were gently washed with PBS and then fixed with a 4% solution of formaldehyde (methanol-free, Thermo Fisher, USA) in PBS for 20 min. at 22 °C in the dark. Then, the fixative was discarded, and the cells were washed twice with PBS. […]
# [2] = biological target: T1, dopamine receptor DAR1 (Homo sapiens, UniProt P21728); experiment: PRESTO-Tango β-arrestin 2 recruitment assay, DAR1; format: cell-based; conditions: HTLA cells
# T1 construct: host or cells: HTLA (HEK 293-derived)
# Excerpt: However, binding to a specific receptor/transporter and, thus, the mechanism of action of a given cathinone always depends on the specific structure of the evaluated compound [37]. In this study, the binding activity of IBMcat and its enantiomers was verified by PRESTO-Tango (parallel receptor expression and screening via transcriptional output, with transcriptional activation following arrestin-2 translocation) assay using the HTLA cell line stably producing β-arrestin-2 in a fusion with TEV and luciferase production driven by tTA. […] The transcription factor then translocates to the cell nucleus, in which it triggers the transcription of the target gene for luciferase production which can be determined by the light emitted from luciferin conversion to oxyluciferin. Here, the pronounced luminescence was recorded for all DAR1-4 types in HTLA cells treated with IBMCat and its enantiomers (Figure 8). […]
# The transfected HTLA cells were incubated for 24 h, and then 1 × 10^4 cells were seeded per well of a white 96-well clear bottom plate (Brand, Germany) in 40 μL of DMEM with 1% charcoal-stripped FBS (Thermo Fisher Scientific, USA). […] After 5 min., the luminescence was measured using a multi-mode microplate reader SpectraMax iD5 (Molecular Devices, San Jose, CA, USA) measuring the entire wavelength spectrum. All samples were measured in quadruplicates. […]
# [3] = biological target: T2, ADRA2B (alpha-2B adrenergic receptor) (Homo sapiens, UniProt P18089); experiment: PRESTO-Tango β-arrestin 2 recruitment assay, ADRA2B; format: cell-based; conditions: 500 nM
# T2 construct: Tango construct (TEV cleavage site and tTA, as described for the dopamine receptor plasmids); host or cells: HTLA (HEK 293-derived)
# Description: The HTLA cell line was used for the PRESTO-Tango β-arrestin recruitment assay. The HTLA cells were provided as a gift from the laboratory of Bryan Roth (Roth Lab, USA). It is a human cell line derived from human embryonic kidney cells (HEK 293) stably expressing β-arrestin in a fusion with the tobacco etch virus protease (TEV) protease and the luciferase gene under the control of the transcription factor tetracycline transcriptional activator (tTA). The HTLA cells were cultured under standard incubation conditions (37 °C, 5% CO2, 95% humidity) in DMEM with 10% FBS. […]
# The transfected HTLA cells were incubated for 24 h, and then 1 × 10^4 cells were seeded per well of a white 96-well clear bottom plate (Brand, Germany) in 40 μL of DMEM with 1% charcoal-stripped FBS (Thermo Fisher Scientific, USA). […] After 5 min., the luminescence was measured using a multi-mode microplate reader SpectraMax iD5 (Molecular Devices, San Jose, CA, USA) measuring the entire wavelength spectrum. All samples were measured in quadruplicates. The data were evaluated by Prism 7 software (GraphPad, […], CA, USA). […]
# The error bar represents standard deviation from four replicates. The data were processed and evaluated by GraphPad Prism Software using one-way ANOVA: * p<0.05; ** p<0.01; *** […]
# T1 sequence (P21728 whole entry): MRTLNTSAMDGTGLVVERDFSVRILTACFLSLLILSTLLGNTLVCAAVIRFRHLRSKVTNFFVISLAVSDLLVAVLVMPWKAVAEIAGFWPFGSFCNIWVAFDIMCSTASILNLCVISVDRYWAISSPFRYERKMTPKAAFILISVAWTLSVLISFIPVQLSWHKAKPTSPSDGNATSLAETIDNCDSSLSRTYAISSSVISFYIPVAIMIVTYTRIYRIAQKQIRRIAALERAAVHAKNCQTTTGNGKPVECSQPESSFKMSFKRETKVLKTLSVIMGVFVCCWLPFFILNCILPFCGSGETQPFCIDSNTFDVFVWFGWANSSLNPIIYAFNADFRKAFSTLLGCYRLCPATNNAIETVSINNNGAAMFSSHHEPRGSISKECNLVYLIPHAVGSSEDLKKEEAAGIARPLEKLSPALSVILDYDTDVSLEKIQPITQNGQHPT
# T2 sequence (P18089 whole entry): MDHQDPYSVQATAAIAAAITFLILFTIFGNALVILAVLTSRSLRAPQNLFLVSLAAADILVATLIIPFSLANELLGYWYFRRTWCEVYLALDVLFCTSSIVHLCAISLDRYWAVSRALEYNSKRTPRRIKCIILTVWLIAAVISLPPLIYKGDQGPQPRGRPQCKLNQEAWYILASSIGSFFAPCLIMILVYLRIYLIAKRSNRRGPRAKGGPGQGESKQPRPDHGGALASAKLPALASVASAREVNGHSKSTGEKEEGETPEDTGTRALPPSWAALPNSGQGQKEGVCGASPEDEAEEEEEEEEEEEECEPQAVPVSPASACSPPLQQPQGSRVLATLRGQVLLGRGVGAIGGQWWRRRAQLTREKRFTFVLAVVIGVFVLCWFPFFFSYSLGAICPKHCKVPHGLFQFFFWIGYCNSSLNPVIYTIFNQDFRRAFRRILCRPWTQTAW
structure (smiles),measurement,setting,value
"CNC(C)C(=O)c1ccc(CC(C)C)cc1.Cl (stereo not shown) [IBMcat, 4-isobutylmethcathinone hydrochloride]",concentration from which a considerable change in cell morphology was induced,[1],≥ 300 µM
same,effect on DAR1 (increase in RLU with increasing concentration),[2]; 0-500 nM,acted as agonists
same,concentration from which no further increase in RLU was detected (maximum effective concentration),[2]; DAR1,10 nM
same,increase in RLU compared to untreated control,[3],1.5 fold
